“And” between values parts separate entries of the source, which are not always exact repeats. Equal values may be shown once.
Experiments:
[1] = concentration 0.001%; cooled samples, traditional recipe; day 7 of storage; cited from earlier work
[2] = oxygen radical absorbance capacity (ORAC) assay; format: biochemical
Protocol: FIGS. 6 and 7 illustrate ORAC and CAP-e antioxidant tests conducted on Dihydroquercetin (taxifolin). The ORAC test measures the scavenging capacity at 37° C. of peroxyl radical induced by 2,2 -azobis-(2-amidinopropane) dihydrochloride (AAPH) using fluorescence at a wavelength of 565 nm with excitation at 540 nm. The results are calculated and expressed as milimoles of Trolox equivalents per gram. This test is widely used for evaluation and comparison of the antioxidant capacity in natural products and extracts and has been successfully applied to bioavailability studies, showing increased antioxidant capacity in serum in test subjects after consumption of antioxidant-rich foods.
Two different but synergistic testing principles are shown in FIG. 6: (A) The oxygen radical absorbance capacity (ORAC) assay is a chemical test, in which interference with specific chemical reactions are measured; (B) The cell-based antioxidant protection in erythrocytes (CAP-e) assay reflects whether antioxidants can enter into and protect live cells from oxidative damage. Dihydroquercetin (taxifolin) has the ORAChydrophilic assay over 15,000 μmol TE/g.

lipid peroxidation = details: in vitro and ex vivo; cited from earlier work
[3] = milks produced during the dry-lot regime; cited from earlier work
[4] = lard, cottonseed oil, and butter oil; cited from earlier work
rats = details: high levels, long periods of time; cited from earlier work
serum and liver lipids = details: following exposure to toxic ionizing radiation; cited from earlier work

O=C1c2c(O)cc(O)cc2OC(c2ccc(O)c(O)c2)C1O (stereo not shown) [Dihydroquercetin (taxifolin)]
peroxide values lower by [1]: 57.1% and 58.60%
ORAChydrophilic assay [2]: over 15,000 μmol TE/g
lipid peroxidation (lipid peroxidation): inhibits
development of spontaneous oxidation [3]: inhibited
antioxidant effect [4]: effective antioxidant
toxic effects (rats): No toxic effects were observed
peroxidation of serum and liver lipids (serum and liver lipids): inhibited
